From paper PMC12040169 (PLOS Biology, 2025) come the findings set out here.

A short description of the series: in vitro. Particulars: human, hela cells, % viability.

SMILES strings stand for the structures.

On to `CCN1CCN(Cc2c(C)nc3ccc(C)cc3c2O)CC1` [CBK263699], for which the viability (as a rule, a read-out of living cells in per cent, often relative to untreated cells) at 28.5 h, 10 µM was determined as 89.8%. On the same count and under the same terms, the figure for `O=C(NCc1ccco1)/C(=C\c1ccccc1)NC(=O)c1ccc(Br)cc1` [CBK263701] is 87.7%. The same measure, in the same setting: the figure for `O=C(CC1(O)C(=O)Nc2ccccc21)CC1(O)C(=O)Nc2ccccc21` (centres unmarked) [CBK263705] is 93.1%; for `CN1CCc2c(sc3nc(SCc4ccc(Cl)c(Cl)c4)n(-c4ccccc4)c(=O)c23)C1` [CBK263706] it is 94.2%.

Take `O=C(Nc1cccc(C(=O)O)c1)/C(=C\c1ccco1)NC(=O)c1ccc(Br)cc1` [CBK263707]: the viability at 28.5 h, 10 µM was found to be 91.3%.

For `COc1ccc(/C=N/NC(=O)c2cc[nH]n2)cc1COc1ccc(Cl)cc1Cl` [CBK263708], the viability at 28.5 h, 10 µM turned out to be 90.9%. Still for that read-out and setting: the result for `O=C(CC1S\C(=N/N=C/C=C/c2ccccc2)N=C1O)Nc1ccc(C(=O)O)cc1` (centres unmarked) [CBK263711] reads 101%. On the same count and under the same terms, the figure for `O=C(CSc1cc(Cl)ccc1Cl)Nc1cccc(Cl)c1` [CBK263712] is 113%.

Take `COc1ccc(CSc2nc3sc4c(c3c(=O)n2Cc2ccccc2)CCN(Cc2ccccc2)C4)cc1` [CBK263714]: the viability at 28.5 h, 10 µM is 85.1%. Take `O=C(Nc1ccc(S(=O)(=O)Nc2ncccn2)cc1)c1cc([N+](=O)[O-])ccc1Cl` [CBK263717]: the viability at 28.5 h, 10 µM stood at 89.9%. Turning to `O=C(O)CNC(=O)/C(=C\c1ccc(F)cc1)NC(=O)c1ccco1` [CBK263718], the viability at 28.5 h, 10 µM amounted to 96.4%.

With `O=C(O)COc1ccc(NC(=O)c2ccc3c(c2)C(=O)N(CC2CCCO2)C3=O)cc1` (centres unmarked) [CBK263719], the viability at 28.5 h, 10 µM worked out at 92.5%.

For `COC(=O)C1=C(C)N(CCc2ccc(OC)c(OC)c2)C(=O)/C1=C\c1ccc(O)cc1` [CBK263722], the viability at 28.5 h, 10 µM turned out to be 89.6%. `O=C(O)CC1S/C(=N/N=C2/C(=O)Nc3ccccc32)N(c2ccc(O)cc2)C1=O` (centres unmarked) [CBK263723]: the viability at 28.5 h, 10 µM was found to be 93%. Turning to `Nc1nc(SCc2ccc(Cl)cc2)nc2sc3c(c12)CCN(Cc1ccccc1)C3` [CBK263724], the viability at 28.5 h, 10 µM was 88.1%. With `O=C(COc1ccccc1)C(C(=O)c1ccccc1)=C1Nc2ccccc2N1` [CBK263725], the viability at 28.5 h, 10 µM was found to be 97.8%. `CCC1CCCCN1Cc1c(O)ccc2c(=O)c(Oc3ccc(OC)cc3)c(C(F)(F)F)oc12` (centres unmarked) [CBK263727]: the viability at 28.5 h, 10 µM stood at 98.8%.

In the case of `CCN(CC)CCSc1nc2sc3c(c2c(=O)n1-c1ccccc1)CC(C)(C)OC3` [CBK263728], the viability at 28.5 h, 10 µM was 96.6%. On the same count and under the same terms, the result for `CC(C)(C)OC(=O)COc1cc2oc(=O)cc(-c3ccccc3)c2cc1Cl` [CBK263729] reads 87.6%. Same read-out and setting: the figure for `COc1ccccc1C/C(N)=N/OC(=O)COc1ccc2ccccc2c1` [CBK263730] is 89.7%; for `Cc1ccc(/C=N/N=C2/N=C(O)C(CC(=O)Nc3ccccc3C(F)(F)F)S2)o1` (centres unmarked) [CBK263731] it is 104%.

For `COc1ccc(Nc2nnc(-c3ccc(C(=O)NCCO)cc3)c3ccccc23)cc1` [CBK263735], the viability at 28.5 h, 10 µM amounted to 90.5%. Same read-out and setting: the result for `O=C(Nc1ccc(S(=O)(=O)Nc2ncccn2)cc1)c1ccc(Cl)c([N+](=O)[O-])c1` [CBK263739] reads 101%. The same measure, in the same setting: the result for `CC(C)N1CCc2c(sc3nc(SCc4ccc(Cl)cc4)n(Cc4ccccc4)c(=O)c23)C1` [CBK263745] reads 84.4%; that for `O=C(Nc1cccc(C(=O)O)c1)/C(=C\c1ccc2c(c1)OCO2)NC(=O)c1ccccc1Cl` [CBK263746], 96.4%. Consider `O=C(O)COc1ccc2c(=O)c(Oc3ccccc3Br)c(C(F)(F)F)oc2c1` [CBK263747], for which the viability at 28.5 h, 10 µM worked out at 101%.

Turning to `COc1ccccc1NC(=O)CC1S/C(=N\N=C2/CCCc3ccccc32)N=C1O` (centres unmarked) [CBK263748], the viability at 28.5 h, 10 µM is 102%. Regarding `COc1ccc(N2C(=O)/C(=C/c3ccc(-c4cc(C(=O)O)ccc4Cl)o3)C(=O)NC2=S)cc1` [CBK263750], the viability at 28.5 h, 10 µM (bulk resorufin, single well) is 97.8%. On to `O=C(CN(c1ccccc1)S(=O)(=O)c1ccccc1[N+](=O)[O-])Nc1ccc(I)cc1` [CBK263755], for which the viability at 28.5 h, 10 µM came out at 58.3%. The same measure, in the same setting: the result for `Cc1ccc(NCc2nc3ccccc3n2Cc2ccccc2)cc1C` [CBK263756] reads 98.4%. With `COc1cccc(N(CC(=O)Nc2ccc(C)c(C)c2)S(=O)(=O)c2ccc(C)cc2)c1` [CBK263761], the viability at 28.5 h, 10 µM was 103%. On to `COc1cc(/C=N/n2cnnc2)ccc1OCCOc1ccc(C(C)(C)C)cc1` [CBK263762], for which the viability at 28.5 h, 10 µM amounted to 88.8%. Still for that read-out and setting: the figure for `O=C(COc1ccc2ccccc2c1)Nc1ccc(S(=O)(=O)N2CCCCC2)cc1` [CBK263765] is 118%; for `COc1ccc(C(=O)C2=C(O)C(=O)N(CCCO)C2c2ccc(Br)cc2)cc1` (centres unmarked) [CBK263769] it is 95.5%; for `CS(=O)(=O)N(CC(=O)NC1CCCCC1)c1cccc2ccccc12` [CBK263770] it is 83.9%. As for `NS(=O)(=O)c1ccc(CCNC(=O)c2ccc([N+](=O)[O-])cc2)cc1` [CBK263773], the viability at 28.5 h, 10 µM was 104%. As for `COc1ccc(C2C(C(C)=O)=C(O)C(=O)N2CCCC(=O)O)cc1` (centres unmarked) [CBK263774], the viability at 28.5 h, 10 µM worked out at 100%.

Regarding `Cc1ccc2nsnc2c1NC(=O)COc1ccccc1[N+](=O)[O-]` [CBK263779], the viability at 28.5 h, 10 µM was 92.7%.

For `Cc1ccc(S(=O)(=O)/N=C(/NCc2ccc(Cl)cc2)Nc2nc(C)cc(C)n2)cc1` [CBK263785], the viability at 28.5 h, 10 µM is 102%. For `Cc1cc2c(cc1C)N(C(=O)CSc1ncn[nH]1)C(C)(C)c1ssc(=S)c1-2` [CBK263786], the viability at 28.5 h, 10 µM came out at 96.3%.

With `O=C(C1=C(O)C(=O)N(c2ccc([N+](=O)[O-])cc2)C1c1ccccc1)c1ccccc1` (centres unmarked) [CBK263787], the viability at 28.5 h, 10 µM was determined as 94.4%. On the same count and under the same terms, the result for `O=C(Cn1c2ccccc2c2ccccc21)Sc1nc2ccccc2[nH]1` [CBK263788] reads 103%. Regarding `O=C(CN1C(=O)c2ccccc2C1=O)Nn1cnnc1` [CBK263789], the viability at 28.5 h, 10 µM worked out at 99.6%. With `COc1cccc(N(CC(=O)Nc2ccccc2Cl)S(=O)(=O)c2ccc(C)cc2)c1` [CBK263791], the viability at 28.5 h, 10 µM stood at 93.4%. As for `O=C(Nc1cccc2nsnc12)c1ccc(Cl)cc1` [CBK263793], the viability at 28.5 h, 10 µM came to 96.1%. Still for that read-out and setting: the figure for `O=C(O)CN1C(=O)C(O)=C(C(=O)c2ccc(Cl)cc2)C1c1ccccc1[N+](=O)[O-]` (centres unmarked) [CBK263794] is 98.5%.

Turning to `Nc1c(C(=O)O)nnn1Cc1ccccc1` [CBK263796], the viability at 28.5 h, 10 µM came out at 95.6%. The same measure, in the same setting: the result for `O=C1CC(Sc2ccccc2)C(=O)N1c1ccc(Cc2ccc(N3C(=O)CC(Sc4ccccc4)C3=O)cc2)cc1` (centres unmarked) [CBK263797] reads 110%. Take `COc1ccc(N2C(=O)/C(=C/c3cc(C)n(-c4ccc(N5CCOCC5)cc4)c3C)C(=O)NC2=S)cc1` [CBK263798]: under “bulk resorufin, single well”, the viability at 28.5 h, 10 µM worked out at 89.7%. For `CCOc1ccccc1N(CC(=O)Nc1ccc(C)cc1C)S(C)(=O)=O` [CBK263799], the viability at 28.5 h, 10 µM was found to be 96%.

As for `O=C(CCSc1ccc(Cl)cc1)NCCc1ccccc1` [CBK263800], the viability at 28.5 h, 10 µM was found to be 86.4%. In the case of `O=C(COc1ccc2ccccc2c1)Nc1ccc(S(=O)(=O)N2CCc3ccccc32)cc1` [CBK263802], the viability at 28.5 h, 10 µM turned out to be 91.5%. In the case of `O=C(O)c1ccc(Nc2ncnc3c2cnn3Cc2ccccc2)cc1` [CBK263803], the viability at 28.5 h, 10 µM came out at 92.1%.
